Data set [1] is described as follows: Encapsulation efficiency by Ribogreen assay. Format: physicochemical. The following applies: formulated at pH 5.
From the text: As used herein, “encapsulated” can refer to a nanoparticle that provides an active agent or therapeutic agent, such as a nucleic acid (e.g., a messenger RNA), with full encapsulation, partial encapsulation, or both. In a preferred embodiment, the nucleic acid is fully encapsulated in the nanoparticle. In the context of nucleic acid therapeutic agents, full encapsulation may be determined by a Ribogreen® assay. RiboGreen® is an ultra-sensitive fluorescent nucleic acid stain for quantitating oligonucleotides and single-stranded DNA or RNA in solution (available from Thermo Fisher Scientific—US).
Nanoparticles containing compound 3:DOPE:cholesterol:DMG-PEG2k at molar ratios of 1:0.25:0.9625:0.0375 and RNA at two different weight ratios were formulated using NanoAssemblr Benchtop (Precision NanoSystems Inc, Vancouver, BC, Canada)). RNA was diluted with DNase/RNase-Free, endotoxin free distilled water and sterile acetate buffer to a final desired pH. Total flow rate was maintained at 8 mL per min at a 3:1 ratio of aqueous to organic phase for formulating on the Benchtop. Using glassware depyrogenated by heating at 250° C. for 24 h, nanoparticles were dialyzed against sterile, endotoxin-free PBS using 20,000 molecular weight cutoff dialysis. Dialyzed nanoparticles were sterile filtered using 0.2 micron poly(ether sulfone) filters and characterized with a Zetasizer NanoZS machine (Malvern). The size distributions were characterized by a single peak with a low polydispersity index. Encapsulation efficiency was measured to be 95% for the nanoparticle composition containing compound 3 and SEAP mRNA or SEAP replicon RNA (formulated at pH 5) using Ribogreen® assay (Geall et al. 10.1073/pnas.1209367109 which is incorporated herein by reference as if fully set forth).
(§1) Nanoparticles containing the compound 8:cholesterol:DOPE:DMG-PEG2k at molar ratios of 1:2:1.5:0.0375 were formulated using NanoAssemblr Benchtop (Precision NanoSystems Inc, Vancouver, BC, Canada)). RNA was diluted with Dnase/Rnase-Free, endotoxin free distilled water and sterile citrate buffer to a final desired pH. Total flow rate was maintained at 8 mL per min at a 3:1 ratio of aqueous to organic phase for formulating on the Benchtop. Using glassware depyrogenated by heating at 250° C. for 24 hours, nanoparticles were dialyzed against sterile, endotoxin-free PBS using 20,000 molecular weight cutoff dialysis. Dialyzed nanoparticles were sterile filtered using 0.2 micron poly(ether sulfone) filters and characterized with a Zetasizer NanoZS machine (Malvern). The size distributions were characterized by a single peak with a low polydispersity index. Encapsulation efficiency was measured to be 89% for the nanoparticle composition containing compound 8 and Replicon SEAP RNA (formulated at pH 5) using Ribogreen® assay.
as §1, with “8 or compound 9:cholesterol:DOPE DMG-PEG2k” for “8:cholesterol:DOPE:DMG-PEG2k”, “7,000” for “20,000”, “81%” for “89%”, “Luciferase Ψ mRNA” for “Replicon SEAP RNA”, “assay. Encapsulation efficiency was measured to be 82% for the nanoparticle composition containing compound 9 and Luciferase Ψ mRNA (formulated at pH 5). […]” for “assay.”

The subject of the next data set is SEAP expression. The data set can be described thus: In vivo SEAP production in mouse serum (Phospha-Light assay). On the set-up: species or system mice.
Data set [2] in a line: Hydrodynamic size measurement by dynamic light scattering (Zetasizer). The following applies: for Z average: DOPE, DMG-PEG 2000 and SEAP Replicon RNA; for Z average (size of strongest intensity): FIG. 4; for Z average (size of strongest intensity) / polydispersity index: compound 8 and SEAP RNA, hand mixing. Format: physicochemical. The method, then:
Additionally, with reference to FIG. 2, nanoparticles were formulated by mixing 21 μl of an ethanol phase containing compound 5 or compound 6, cholesterol, DOPE, and DMG PEG 2000 (PEG-lipid, Avanti Polar Lipids) at molar ratio of 1:2:1.5:0.0375 with 63 μl of SEAP Replicon RNA encoding secreted embryonic alkaline phosphatase (diluted with UltraPure, DNase/RNase-free, endotoxin-free distilled water (Invitrogen) and sterile 100 mM (pH 5) citrate buffer to a final citrate concentration of 10 mM. The resulting nanoparticles contained 4:1 mass ratio of compound 5 or compound 6 to RNA. Formulations were diluted 100-fold for analysis of particle size distribution, Z-average, and derived count rate using a Zetasizer Nano ZS (Malvern Panalytical).
The “Z average” of the nanoparticle composition containing compound 5 or compound 6, cholesterol, DOPE, DMG-PEG 2000 and SEAP Replicon RNA as function of size was determined by dynamic light scattering (DLS). […] Referring to FIG. 2, the size distributions were characterized with a low polydispersity index, indicating a relatively monodisperse size.
Reference to FIG. 4, nanoparticles were formulated by mixing 21 μl of an ethanol phase containing Compound 8, cholesterol, DOPE, and DMG PEG 2000 (PEG-lipid, Avanti Polar Lipids) at molar ratio of 1:2:1.5:0.0375 with 63 μl of Replicon RNA encoding secreted embryonic alkaline phosphatase (SEAP) diluted with UltraPure, DNase/RNase-free, endotoxin-free distilled water (Invitrogen) and sterile 100 mM (pH 5 or pH3) citrate buffer to a final citrate concentration of 10 mM. The derived NPs were characterized with a Zetasizer NanoZS machine (Malvern). The size distributions were characterized by a single peak with a low polydispersity index.
FIG. 4 illustrates distribution of the nanoparticle composition measured as the intensity (Z average) based on size (d.nm; diameter in nm) of the nanoparticles. Referring to FIG. 4, the “Z average” of the nanoparticle composition containing compound 8 and SEAP RNA as function of size was determined by dynamic light scattering (DLS). […] The polydispersity index of nanoparticles formulated with buffer pH 3 and pH 5 is 0.13 and 0.11, respectively, indicating a relatively monodisperse size.
as §1
The “Z average” of the nanoparticle composition containing compound 8, cholesterol, DOPE, DMG-PEG 2000 and SEAP Replicon RNA as function of size was determined by dynamic light scattering (DLS). […] Referring to Table 2, the size distributions were characterized with a low polydispersity index, indicating a relatively monodisperse size.
Nanoparticles containing the compound 8 or compound 9:cholesterol:DOPE DMG-PEG2k at molar ratios of 1:2:1.5:0.0375 were formulated using NanoAssemblr Benchtop (Precision NanoSystems Inc, Vancouver, BC, Canada)). RNA was diluted with Dnase/Rnase-Free, endotoxin free distilled water and sterile citrate buffer to a final desired pH. […]
On the technique in general: A replicon is a self-replicating genome or part of one, used to study replication in cells.

Assay in data set [3]: as above
Format: physicochemical. The following applies: cholesterol.

Where [4] appears, read: cholesterol:DOPE:DMG-PEG2k nanoparticles with Luciferase Ψ mRNA.
Where [5] appears, read: Table 3, DOPE, DMG-PEG 2000 and Luciferase Ψ mRNA.
The mark [6] stands for this setting: cholesterol:DSPC:DMG-PEG2k 50:38.5:10:1.5 nanoparticles with SEAP Ψ mRNA.
The mark [7] stands for this setting: FIG. 7, DSPC, DMG-PEG 2000 and SEAP Ψ mRNA.

Results on six molecules are retold here after US12491262B2, “Gene delivery agents” (TIBA Biotech LLC, priority 2023, dated 2025).

Structures are written as SMILES.

`CCCCCCCCCCSSCCCCCCOC(=O)CCN(CCCCN(C)CCCNC(=O)CCCCCCC/C=C\C[C@@H](O)CCCCCC)CCC(=O)OCCCCCCSSCCCCCCCCCC` [Compound 3] had an Encapsulation efficiency in data set [1] (nanoparticles compound 3:DOPE:cholesterol:DMG-PEG2k with SEAP mRNA or SEAP replicon RNA) of 95%. The “SEAP protein production in vivo” value in the data set on SEAP expression (FIG. 1, SEAP replicon RNA and SEAP mRNA formulated with compound 3) is “resulted in SEAP protein production”. For the same molecule, the “SEAP expression in mouse serum, 10:1 versus 15:1 compound 3:RNA” value with SEAP expression (formulations with 10:1 compound 3:RNA, mice, 2 μg SEAP mRNA or SEAP replicon RNA, serum 16 hrs later) was “higher expression”.

`CCCCCCCCCCCCn1cc(COC(=O)CCN(CCCN(C)CCCNCCCO[C@H]2O[C@@H](COC(C)=O)[C@H](OC(C)=O)[C@@H](OC(C)=O)[C@@H]2OC(C)=O)CCC(=O)OCc2cn(CCCCCCCCCCCC)nn2)nn1` [Compound 6]: in data set [2] (FIG. 2, hand mixing with cholesterol, pH 5 citrate, 4:1 mass ratio to RNA), the Z average is 122.0 nm·days.

As to `CCCCCCCCCCCCCCCCOC(=O)CCN(CCCCN(C)CCCNCCCOP(=O)(OCC)OCC)CCC(=O)OCCCCCCCCCCCCCCCC` [Compound 8], the Encapsulation efficiency in data set [1] (setting [4]) is 81%; in data set [1] (compound 8:cholesterol:DOPE:DMG-PEG2k with Replicon SEAP RNA, microfluidic mixing), 89%. The “Z average (size of strongest intensity)” value was determined as 133.7 nm·days in data set [2] (buffer pH 3) and 191.3 nm·days in data set [2] (buffer pH 5). Moreover, the Z average in data set [2] (Table 2, compound 8, cholesterol, microfluidic mixing) amounted to 78.2 nm·days; in data set [3] (setting [5]), 76.5 nm·days. Further, the polydispersity index was 0.13 in data set [2] (buffer pH 3) and 0.11 in data set [2] (buffer pH 5).

On to `CCCCCCCCCCCCCCCCOC(=O)CCN(CCCCN(C)CCCNCCCO[C@@H]1O[C@H](COC(C)=O)[C@@H](OC(C)=O)[C@H](OC(C)=O)[C@H]1OC(C)=O)CCC(=O)OCCCCCCCCCCCCCCCC` [Compound 9], for which the Encapsulation efficiency in data set [1] (setting [4]) worked out at 82%. In data set [3] (setting [5]), the Z average was found to be 80.9 nm·days.

In data set [1] (setting [6]), `CCCCCCCCCCCCOC(=O)CCSSCCC(=O)NCCCN(C)CCCN(CCC(=O)OCCCCCCCC)CCC(=O)OCCCCCCCC` [Compound 13] had an Encapsulation efficiency of 89%. For the same molecule, in the data set on SEAP expression (FIG. 8, BALB/c mice, approximately 2 μg, SEAP Ψ mRNA nanoparticles formulated at pH 5), the “SEAP expression in mice serum, compound 13 compared to compound 18” value was “better SEAP expression”. The same molecule had a Z average in data set [3] (setting [7]) of 129.5 nm·days.

In data set [1] (setting [6]), `CCCCCCCCCCCCOC(=O)CCCCCCC(=O)NCCCN(C)CCCN(CCC(=O)OCCCCCCCC)CCC(=O)OCCCCCCCC` [Compound 18] showed an Encapsulation efficiency of 84%. This molecule had a Z average in data set [3] (setting [7]) of 74.8 nm·days.
